Target: T1, TrkB-wt (Mus musculus, UniProt P15209)
T1 construct: gene Ntrk2; full-length receptor with kinase domain, pcDNA3, transiently overexpressed in HEK293; 130 kDa mature and 90 kDa underglycosylated
Experiment: Western blot and immunofluorescence of pTrk-kin, transfected HEK293
Type: cell-based
Details: no neurotrophin, constitutive kinase activity; concentrations only in figure

T1 sequence (P15209 32-821): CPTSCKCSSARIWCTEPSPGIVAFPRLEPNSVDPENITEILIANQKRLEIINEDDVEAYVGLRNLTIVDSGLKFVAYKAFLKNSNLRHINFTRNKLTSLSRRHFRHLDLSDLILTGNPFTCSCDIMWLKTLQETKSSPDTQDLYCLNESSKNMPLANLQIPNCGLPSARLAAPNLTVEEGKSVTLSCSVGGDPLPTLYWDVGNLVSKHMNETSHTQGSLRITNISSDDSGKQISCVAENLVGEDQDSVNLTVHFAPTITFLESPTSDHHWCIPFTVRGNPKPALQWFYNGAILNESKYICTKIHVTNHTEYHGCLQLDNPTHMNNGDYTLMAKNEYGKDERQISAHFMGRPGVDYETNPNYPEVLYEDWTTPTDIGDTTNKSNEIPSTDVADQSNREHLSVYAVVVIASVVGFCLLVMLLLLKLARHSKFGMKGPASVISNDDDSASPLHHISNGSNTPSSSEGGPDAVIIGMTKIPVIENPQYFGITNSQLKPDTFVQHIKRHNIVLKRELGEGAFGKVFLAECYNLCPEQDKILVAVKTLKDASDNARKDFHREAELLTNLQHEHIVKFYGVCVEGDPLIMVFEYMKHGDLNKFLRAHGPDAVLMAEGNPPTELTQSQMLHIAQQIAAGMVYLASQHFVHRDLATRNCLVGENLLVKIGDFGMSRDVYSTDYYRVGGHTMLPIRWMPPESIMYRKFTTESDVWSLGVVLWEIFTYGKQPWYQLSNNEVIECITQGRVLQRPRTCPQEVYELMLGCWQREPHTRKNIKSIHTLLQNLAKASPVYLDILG

SMILES	Western blot and immunofluorescence of pTrk-kin, transfected HEK293
CN1CCN(c2ccc(C(=O)Nc3n[nH]c4ccc(Cc5cc(F)cc(F)c5)cc34)c(NC3CCOCC3)c2)CC1 [Entrectinib]	TrkB self-activity is reduced upon inhibitor treatment
O=C(Nc1cnn2ccc(N3CCC[C@@H]3c3cc(F)ccc3F)nc12)N1CC[C@H](O)C1 [LOXO-101]	TrkB self-activity is reduced upon inhibitor treatment

From publication PMC11405271, “Atypical cellular responses mediated by intracellular constitutive active TrkB (NTRK2) kinase domains and a solely intracellular NTRK2-fusion oncogene” (Cancer Gene Therapy, 2024)
